From US9115101B2 (Genentech, Inc., priority 2012, dated 2015)

Biological target: T1, RORc ligand binding domain (Homo sapiens, UniProt P51449)
T1 construct: host or cells: E. coli
T1 sequence (P51449 269-508 limits assumed): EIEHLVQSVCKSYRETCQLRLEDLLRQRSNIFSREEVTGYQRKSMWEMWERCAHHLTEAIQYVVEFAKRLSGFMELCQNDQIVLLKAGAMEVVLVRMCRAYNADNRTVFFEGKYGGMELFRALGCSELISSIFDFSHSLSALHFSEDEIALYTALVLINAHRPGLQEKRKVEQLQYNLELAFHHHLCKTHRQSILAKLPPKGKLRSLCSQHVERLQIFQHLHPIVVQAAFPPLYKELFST
Assay: In Vitro RORc Ligand Binding Assay (25-[3H]hydroxycholesterol radioligand filtration)
Details: read-out: RORc IC50

Row | SMILES | IC50 [nM]
1 | CCOC(=O)N1CCC(C(=O)Nc2ccc(CN3[C@@H](C)CCC(c4ccccc4)S3(=O)=O)c(F)c2)CC1 (stereo partly drawn) [Example 456, 4-[3-Fluoro-4-((3S)-methyl-1,1-dioxo-6-phenyl-[1,2]thiazinan-2-ylmethyl)-phenylcarbamoyl]-piperidine-1-carboxylic acid ethyl ester] | 148
2 | CC(=O)N1CCC(C(=O)Nc2ccc(CN3[C@@H](C)CCC(c4ccccc4)S3(=O)=O)c(F)c2)CC1 (stereo partly drawn) [Example 457, 1-Acetyl-piperidine-4-carboxylic acid [3-fluoro-4-((3S)-methyl-1,1-dioxo-6-phenyl-[1,2]thiazinan-2-ylmethyl)-phenyl]-amide] | 437
3 | C[C@H]1CCC(c2ccccc2)S(=O)(=O)N1Cc1ccc(NC(=O)C2CN(S(C)(=O)=O)C2)cc1F (stereo partly drawn) [Example 458, 1-Methanesulfonyl-azetidine-3-carboxylic acid [3-fluoro-4-((3S)-methyl-1,1-dioxo-6-phenyl-[1,2]thiazinan-2-ylmethyl)-phenyl]-amide] | 98
4 | C[C@H]1CCC(c2ccccc2)S(=O)(=O)N1Cc1ccc(NC(=O)C2CCN(S(C)(=O)=O)CC2)cc1F (stereo partly drawn) [Example 459, 1-Methanesulfonyl-piperidine-4-carboxylic acid [3-fluoro-4-((3S)-methyl-1,1-dioxo-6-phenyl-[1,2]thiazinan-2-ylmethyl)-phenyl]-amide] | 74
